Source: patent publication US20030069194A1, “Inhibition of viral replication by targeting RNA-DNA complexes” (priority 2001, published 2003)
Counter-ions that a name gives are not always drawn.

Key:
[1] = system: 18C-18R duplex (RNase H substrate of HIV-1 RT); assay: RT-induced RNase H cleavage of the 18C-18R duplex (gel assay); format: biochemical; conditions: 18C-18R duplex; aminoglycosides 312.5 μM; FIG. 1b, 1d
From the text: The first model oligonucleotide was a 18mer chimeric duplex (18C-18R). 18C-18R mimics a RNase H substrate during minus-strand strong-stop synthesis. (FIG. 1a). Mueller, U. et al. Crystal structure of an eight-base pair duplex containing the 3′-DNA RNA-5′ junction formed during initiation of minus-strand synthesis of HIV replication, Biochemistry 37,12005-12011 (1998). […] Note that RT cleaves the RNA strand (18R) opposite the chimeric RNA-DNA strand (18C) at three sites (FIGS. 1a, b). The primary cleavage site lies between base positions +1 and +2 (counting from the RNA-DNA junction in the 5′ direction on the cleaved RNA strand). Two other minor cleavage sites lie between positions +3 and +4 and between positions −1 and +1, with the former site being cleaved to a greater extent than the latter site. Götte, M. et al., HIV-1 Reverse transcriptase-associated RNase H cleaves RNA/RNA in arrested complexes: Implications for the mechanism by which RNase H discriminates between RNA/RNA and RNA/DNA, EMBO J. 14, 833-841 (1995).
(§1) Recombinant HIV-1 RT p66 was isolated from Escherichia coli JM 109. Pandey, V. N. et al, Role of methionine 184 of human immunodeficiency virus type-1 reverse transcriptase in the polymerase function and fidelity of DNA synthesis, Biochemistry 35, 2168-2179 (1996). The 18C and 18R oligonucleotides were purchased from Dharmacon Research, Inc. (Lafayette, Colo.). The 18D oligonucleotide was obtained from Integrated DNA Technologies, Inc. (Coralville, Iowa). Neomycin trisulfate trihydrate, the free base of tobramycin, paromomycin sulfate, and kanamycin B sulfate were obtained from Fluka, while kanamycin A monosulfate and ribostamycin sulfate dihydrate were obtained from Sigma.
(§2) The RNase H activity of RT was assayed in a 10 μl reaction mixture containing 10 mM PIPES (pH 6.0) and 5 mM MgCl2. Ten pmol of either 18C or 18R were ^32P-labeled at the 5′ end using T4 polynucleotide kinase. For the cleavage experiments, different aminoglycosides were mixed with 0.5 μM of target duplex. A small amount of RT, 0.1 μg, was then added to initiate the cleavage reaction. After incubation at 37° C. for 30 min, the reaction was stopped by addition of 3 M urea containing a mixture of bromophenol blue and xylene cyanol. Denaturation of the 18C-18R duplex required the addition of 5 M urea as well as heating at 95° C. for 5 min prior to gel loading. The cleavage products were resolved in a 10% polyacrylamide gel containing 8 M urea. The gels were subsequently analyzed using a phosphoimager (Molecular Dynamics, Inc.).

[2] = system: 18C-18D duplex (RNase H substrate of HIV-1 RT); assay: RT-induced RNase H cleavage of the 18C-18D duplex (gel assay); format: biochemical; conditions: 18C-18D duplex; aminoglycosides 2.0 mM; FIG. 2b, 2c
From the text: The second model oligonucleotide was a 18mer chimeric duplex (18C-18D). 18C-18D mimics a RNase H substrate during plus-strand strong-stop synthesis (FIG. 2a), which occurs following minus-strand DNA synthesis. Fedoroff, O. Y., et. al., B. R. Structural variation among retroviral primer-DNA junctions: Solution structure of the HIV-1 (−)-strand Okazaki fragment r(gcca)d(CTGC)-d(GCAGTGGC), Biochemistry 35,11070-11080 (1996). For the 18C-18D duplex, RT cleaves the RNA portion of the chimeric strand (18C) opposite the DNA strand (18D) at only a single site (FIGS. 2a, b), in marked contrast to the three cleavage sites observed in the 18C-18Rduplex. This unique cleavage site lies between base positions +1 and +2 (counting from the RNA-DNA junction in the 5′ direction on the cleaved chimeric strand). Furfine, E. S. & Reardon, J. E., Human immunodeficiency virus reverse transcriptase ribonuclease H: Specificity of tRNA(Lys3)-primer excision, Biochemistry 30, 7041-7046 (1991); Smith, J. S. & Roth, M. J. Specificity of human immunodeficiency virus-1 reverse transcriptase-associated ribonuclease H in removal of the minus-strand primer tRNA(Lys3), J. Biol. Chem. 267, 15071-15079 (1992). […] As noted above for the 18C-18R duplex, this hierarchy of cleavage inhibition correlates with the relative binding affinities of the three ligands for the 18C-18D duplex.
as §1
as §2, with “containing 110” for “containing 10”
To determine the nature of the aminoglycoside-induced inhibition of RT-catalyzed RNase H cleavage, the impact of RT concentration on neomycin-induced inhibition was examined. […] In the presence of 1 mM neomycin, increasing the concentrations of RT overcomes the RNase H inhibitory effect of the drug.

Structure (SMILES) | hierarchy of the extent of inhibition of RT-induced cleavage [1] | hierarchy of inhibition of RT-induced cleavage [2]
NC[C@H]1O[C@H](O[C@H]2[C@H](O)[C@@H](O[C@H]3O[C@H](CO)[C@@H](O)[C@H](N)[C@H]3O)[C@H](N)C[C@@H]2N)[C@H](O)[C@@H](O)[C@@H]1O.O=S(=O)(O)O [kanamycin A, kanamycin A monosulfate] | neomycin>paromomycin>tobramycin>kanamycin B>ribostamycin>>kanamycin A | –
NC[C@H]1O[C@H](O[C@H]2[C@H](O)[C@@H](O[C@H]3O[C@H](CO)[C@@H](O)[C@H](N)[C@H]3O)[C@H](N)C[C@@H]2N)[C@H](N)[C@@H](O)[C@@H]1O.O=S(=O)(O)O [kanamycin B, kanamycin B sulfate] | neomycin>paromomycin>tobramycin>kanamycin B>ribostamycin>>kanamycin A | –
NC[C@H]1O[C@H](O[C@H]2[C@H](O[C@@H]3O[C@H](CO)[C@@H](O)[C@H]3O)[C@@H](O)[C@H](N)C[C@@H]2N)[C@H](N)[C@@H](O)[C@@H]1O [ribostamycin, ribostamycin sulfate dihydrate] | neomycin>paromomycin>tobramycin>kanamycin B>ribostamycin>>kanamycin A | neomycin>paromomycin>ribostamycin
NC[C@H]1O[C@H](O[C@H]2[C@H](O)[C@@H](O[C@H]3O[C@H](CO)[C@@H](O)[C@H](N)[C@H]3O)[C@H](N)C[C@@H]2N)[C@H](N)C[C@@H]1O [tobramycin] | neomycin>paromomycin>tobramycin>kanamycin B>ribostamycin>>kanamycin A | –
